Test results as given in publication PMC11780470 (ACS Omega, 2025).

Target: Indole amine 2,3-dioxygenase 1 (IDO1) (Homo sapiens, UniProt P14902)
Experiment: IDO1 enzyme
Format: biochemical

Chain of Indole amine 2,3-dioxygenase 1 (IDO1) (P14902 whole entry): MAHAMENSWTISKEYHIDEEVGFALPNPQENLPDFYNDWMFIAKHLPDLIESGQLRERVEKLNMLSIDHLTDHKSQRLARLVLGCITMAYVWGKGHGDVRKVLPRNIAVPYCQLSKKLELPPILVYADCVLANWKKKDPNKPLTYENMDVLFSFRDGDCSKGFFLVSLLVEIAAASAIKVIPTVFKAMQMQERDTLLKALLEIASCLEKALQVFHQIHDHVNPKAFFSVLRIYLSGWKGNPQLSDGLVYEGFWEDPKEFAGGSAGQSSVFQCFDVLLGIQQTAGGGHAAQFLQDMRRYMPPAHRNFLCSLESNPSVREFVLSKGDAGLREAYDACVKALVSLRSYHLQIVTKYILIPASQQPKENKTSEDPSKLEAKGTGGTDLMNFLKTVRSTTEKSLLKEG

O=C1c2ccccc2-n2c1nc1ccccc1c2=O [TRYP, indolo [2,1-b]quinazoline-6,12-dione]
IC50: 17.3 µM
